Key:
[1] = system: anti-HA (influenza) IgG antibodies; test: ELISA for serum anti-HA IgG after single oral dose of influenza vaccine with delivery agent; assay type: in vivo, BALB/c mice; details: single oral dose 15 μg influenza vaccine A/Johannesburg/39/94 (H3N2) + 500 mg/kg delivery agent
Experimental: Ten BALB/c mice were administered a single oral dose of 15 μg of influenza antigen [influenza vaccine A/Johannesburg/39/94 (H3N2)] per mouse with 500 mg/kg of E352.
1. Coat plates with HA antigen, 10 μg/mL in carbonate buffer.
3. Block with Superblock™ or 1/10 diluted Bovine Serum Albumin (BSA).
4. Add 100 μL per well of diluent (Superblock™ or 1/15 diluted BSA) to all except the top row.
5. In the first row, add 150 μL per well of 1/100 diluted test serum in duplicate and serially dilute 3× down the plate. Leave 2 empty wells as background.
6. Incubate 2 hours at room temperature.
8. To each well, add 100 μl of IgG isotype-specific anti-mouse alkaline-phosphatase conjugated antibody (diluted with 4% PEG 6000).20. Incubate overnight at 4/C.
10. Add 100 μL per well of p-nitrophenyl phosphate (pNPP) substrate solution and incubate in the dark with shaking for 30 minutes.
11. Read and record OD405 after subtracting the background absorbance.

[2] = system: Experimental Autoimmune Encephalomyelitis (EAE)
Experimental: Two days after the (last) oral dose, all groups were challenged in the footpad with 0.05 mg of MBP emulsified with Complete Freund's Adjuvant containing Mycobacterium tuberculosis H37Ra, 4 mg/ml. Clinical signs of disease were observed starting on Day 11 after the challenge and rated on a scale of 0 (no disease) to 5 (death).

[3] = single dose MBP + delivery agent versus one or five doses of MBP alone

## O=C(O)CCCc1ccc(NC(=O)c2ccccc2O)cc1 [E352, 4-[4-(N-salicyloyl)]aminophenyl butyric acid]
[1]
  serum anti-HA IgG titer relative to control fed only influenza antigen: significantly suppressed the production of anti-influenza antibodies
[2]; [3]
  Mean Disease Index per group (highest mean score multiplied by the duration of symptoms): suppressed these disease parameters significantly
  mean Maximal Score per group: suppressed these disease parameters significantly
[2]; single oral dose 1.0 mg MBP alone or with delivery agent, day after challenge
  mean day of onset of paralysis: 16 days
[2]; single oral dose 1.0 mg MBP with delivery agent, footpad challenge 0.05 mg MBP/CFA, scale 0 to 5
  clinical disease (Mean Clinical Score) of EAE: suppression of clinical disease
